In ChEMBL document CHEMBL5291721, “A preclinical secondary pharmacology resource illuminates target-adverse drug reaction associations of marketed drugs” (Nat Commun, 2023):

How the values were obtained:
[1] = biological target: T1, Alpha-2C adrenergic receptor (Homo sapiens, UniProt P18825); assay type: functional
T1 sequence (P18825 whole entry): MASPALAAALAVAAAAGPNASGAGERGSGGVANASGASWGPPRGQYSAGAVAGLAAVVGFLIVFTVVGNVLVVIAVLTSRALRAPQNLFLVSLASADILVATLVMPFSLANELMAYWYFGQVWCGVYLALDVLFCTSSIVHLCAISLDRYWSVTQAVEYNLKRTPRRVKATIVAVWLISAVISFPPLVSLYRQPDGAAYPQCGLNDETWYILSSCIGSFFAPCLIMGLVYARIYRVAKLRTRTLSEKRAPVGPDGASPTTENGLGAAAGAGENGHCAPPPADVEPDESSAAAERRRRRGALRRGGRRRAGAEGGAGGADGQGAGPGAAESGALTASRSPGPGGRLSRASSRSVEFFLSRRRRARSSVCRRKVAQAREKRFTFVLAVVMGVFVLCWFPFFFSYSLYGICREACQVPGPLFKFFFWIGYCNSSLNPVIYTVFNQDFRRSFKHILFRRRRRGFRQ

[2] = biological target: Vasopressin V2 receptor (Homo sapiens, UniProt P30518)
Vasopressin V2 receptor, sequence (P30518 whole entry): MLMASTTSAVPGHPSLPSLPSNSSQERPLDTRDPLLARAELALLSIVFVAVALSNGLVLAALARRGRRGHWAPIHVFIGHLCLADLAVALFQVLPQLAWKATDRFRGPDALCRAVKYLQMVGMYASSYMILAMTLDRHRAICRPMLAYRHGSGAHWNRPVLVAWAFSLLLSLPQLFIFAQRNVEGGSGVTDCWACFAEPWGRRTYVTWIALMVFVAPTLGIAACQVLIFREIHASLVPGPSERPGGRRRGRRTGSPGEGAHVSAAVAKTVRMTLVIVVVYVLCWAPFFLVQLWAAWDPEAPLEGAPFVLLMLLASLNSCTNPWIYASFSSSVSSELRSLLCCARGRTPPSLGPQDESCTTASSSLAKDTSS

[3] = biological target: Voltage-dependent L-type calcium channel subunit alpha-1C (Rattus norvegicus, UniProt P22002); assay type: functional
Voltage-dependent L-type calcium channel subunit alpha-1C, sequence (P22002 whole entry): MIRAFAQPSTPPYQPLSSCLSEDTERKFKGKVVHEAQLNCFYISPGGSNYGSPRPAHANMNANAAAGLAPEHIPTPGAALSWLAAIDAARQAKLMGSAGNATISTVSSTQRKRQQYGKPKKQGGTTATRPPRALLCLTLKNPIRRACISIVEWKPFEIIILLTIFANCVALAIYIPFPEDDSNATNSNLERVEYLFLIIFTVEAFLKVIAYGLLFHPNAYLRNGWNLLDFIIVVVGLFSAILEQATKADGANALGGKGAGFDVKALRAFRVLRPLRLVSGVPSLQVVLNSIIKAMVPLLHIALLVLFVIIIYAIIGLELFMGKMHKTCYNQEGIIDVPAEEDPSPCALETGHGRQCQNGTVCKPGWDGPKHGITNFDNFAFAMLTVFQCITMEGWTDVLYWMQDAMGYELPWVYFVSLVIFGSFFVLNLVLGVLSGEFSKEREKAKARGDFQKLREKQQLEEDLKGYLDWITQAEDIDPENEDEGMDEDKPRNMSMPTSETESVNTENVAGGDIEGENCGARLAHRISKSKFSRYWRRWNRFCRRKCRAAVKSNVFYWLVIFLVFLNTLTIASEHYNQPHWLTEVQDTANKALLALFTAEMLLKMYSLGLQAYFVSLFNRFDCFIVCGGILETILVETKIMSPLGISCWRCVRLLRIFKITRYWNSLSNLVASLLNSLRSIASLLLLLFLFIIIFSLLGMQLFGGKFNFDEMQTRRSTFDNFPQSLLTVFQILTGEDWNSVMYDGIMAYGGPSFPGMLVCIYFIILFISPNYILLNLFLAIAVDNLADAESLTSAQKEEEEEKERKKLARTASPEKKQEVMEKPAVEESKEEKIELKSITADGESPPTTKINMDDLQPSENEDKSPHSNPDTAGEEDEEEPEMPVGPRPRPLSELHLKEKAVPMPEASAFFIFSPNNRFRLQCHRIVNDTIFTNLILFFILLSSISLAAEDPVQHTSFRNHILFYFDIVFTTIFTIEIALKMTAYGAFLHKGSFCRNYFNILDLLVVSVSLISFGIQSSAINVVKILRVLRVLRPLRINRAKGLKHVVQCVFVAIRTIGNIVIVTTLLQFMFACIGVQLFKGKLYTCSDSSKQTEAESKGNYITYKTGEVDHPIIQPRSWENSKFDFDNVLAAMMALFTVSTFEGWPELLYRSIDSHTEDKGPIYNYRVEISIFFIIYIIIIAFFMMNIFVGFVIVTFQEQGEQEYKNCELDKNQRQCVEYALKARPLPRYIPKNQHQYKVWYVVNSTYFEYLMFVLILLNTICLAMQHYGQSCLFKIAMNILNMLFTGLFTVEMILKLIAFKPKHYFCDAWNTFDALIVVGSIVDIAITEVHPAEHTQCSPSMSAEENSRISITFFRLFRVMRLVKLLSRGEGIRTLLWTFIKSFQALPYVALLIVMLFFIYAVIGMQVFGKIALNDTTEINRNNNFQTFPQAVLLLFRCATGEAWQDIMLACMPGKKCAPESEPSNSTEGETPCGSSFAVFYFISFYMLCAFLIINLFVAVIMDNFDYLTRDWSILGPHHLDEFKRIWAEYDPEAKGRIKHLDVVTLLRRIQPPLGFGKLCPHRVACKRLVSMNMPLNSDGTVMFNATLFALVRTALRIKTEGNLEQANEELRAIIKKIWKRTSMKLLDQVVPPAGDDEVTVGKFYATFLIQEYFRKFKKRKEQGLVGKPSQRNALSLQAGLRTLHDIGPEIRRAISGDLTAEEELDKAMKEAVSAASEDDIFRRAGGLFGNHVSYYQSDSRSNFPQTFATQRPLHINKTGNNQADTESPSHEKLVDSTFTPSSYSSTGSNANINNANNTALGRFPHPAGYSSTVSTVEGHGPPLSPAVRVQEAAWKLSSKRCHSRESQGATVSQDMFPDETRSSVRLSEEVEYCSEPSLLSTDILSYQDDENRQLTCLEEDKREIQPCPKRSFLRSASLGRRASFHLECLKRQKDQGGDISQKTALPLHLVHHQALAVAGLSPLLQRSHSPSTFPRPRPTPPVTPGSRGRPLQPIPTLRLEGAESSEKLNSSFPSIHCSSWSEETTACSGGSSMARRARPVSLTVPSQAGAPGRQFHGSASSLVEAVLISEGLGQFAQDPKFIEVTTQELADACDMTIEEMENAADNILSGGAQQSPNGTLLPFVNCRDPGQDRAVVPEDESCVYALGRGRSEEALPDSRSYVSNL

[4] = biological target: T2, Gastrin/cholecystokinin type B receptor (Homo sapiens, UniProt P32239)
T2 sequence (P32239 whole entry): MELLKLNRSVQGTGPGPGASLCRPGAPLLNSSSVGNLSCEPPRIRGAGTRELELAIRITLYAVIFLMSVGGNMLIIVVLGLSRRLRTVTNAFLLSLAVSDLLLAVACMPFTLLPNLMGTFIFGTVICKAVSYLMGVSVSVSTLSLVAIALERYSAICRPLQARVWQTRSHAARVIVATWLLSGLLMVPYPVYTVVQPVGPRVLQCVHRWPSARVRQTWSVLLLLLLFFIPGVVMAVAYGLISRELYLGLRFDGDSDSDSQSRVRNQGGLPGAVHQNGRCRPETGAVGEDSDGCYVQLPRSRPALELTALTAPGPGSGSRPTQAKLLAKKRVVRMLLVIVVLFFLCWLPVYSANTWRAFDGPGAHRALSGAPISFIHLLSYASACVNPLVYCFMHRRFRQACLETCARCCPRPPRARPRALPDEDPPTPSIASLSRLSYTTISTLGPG

[5] = biological target: Gamma-aminobutyric acid receptor subunit alpha-1 (Rattus norvegicus, UniProt P62813); assay type: functional
Gamma-aminobutyric acid receptor subunit alpha-1, sequence (P62813 whole entry): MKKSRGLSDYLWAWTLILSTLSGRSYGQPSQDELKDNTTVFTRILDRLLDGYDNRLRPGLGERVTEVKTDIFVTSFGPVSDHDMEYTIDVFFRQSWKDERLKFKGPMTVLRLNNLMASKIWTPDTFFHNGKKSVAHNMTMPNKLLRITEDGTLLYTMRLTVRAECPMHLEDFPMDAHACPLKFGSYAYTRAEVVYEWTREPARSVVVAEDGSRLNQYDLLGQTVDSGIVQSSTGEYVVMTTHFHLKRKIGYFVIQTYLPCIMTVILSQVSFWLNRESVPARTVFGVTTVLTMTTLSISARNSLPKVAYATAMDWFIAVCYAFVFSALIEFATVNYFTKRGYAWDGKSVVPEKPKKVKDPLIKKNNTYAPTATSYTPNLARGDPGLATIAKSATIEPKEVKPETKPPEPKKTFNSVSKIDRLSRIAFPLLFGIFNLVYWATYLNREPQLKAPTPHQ

[6] = biological target: Histamine H2 receptor (Homo sapiens, UniProt P25021); assay type: functional, cell-based
Histamine H2 receptor, sequence (P25021 whole entry): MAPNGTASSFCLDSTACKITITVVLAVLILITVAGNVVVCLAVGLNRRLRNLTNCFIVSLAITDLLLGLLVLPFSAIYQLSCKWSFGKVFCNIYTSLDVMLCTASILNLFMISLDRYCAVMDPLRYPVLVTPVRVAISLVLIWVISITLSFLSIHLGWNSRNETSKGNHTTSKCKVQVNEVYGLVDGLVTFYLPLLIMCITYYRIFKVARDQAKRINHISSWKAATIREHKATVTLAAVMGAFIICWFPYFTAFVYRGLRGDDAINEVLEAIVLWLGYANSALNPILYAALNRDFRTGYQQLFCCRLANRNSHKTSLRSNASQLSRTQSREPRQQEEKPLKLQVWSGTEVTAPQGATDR

[7] = biological target: T3, 5-hydroxytryptamine receptor 2C (Homo sapiens, UniProt P28335)
T3 sequence (P28335 whole entry): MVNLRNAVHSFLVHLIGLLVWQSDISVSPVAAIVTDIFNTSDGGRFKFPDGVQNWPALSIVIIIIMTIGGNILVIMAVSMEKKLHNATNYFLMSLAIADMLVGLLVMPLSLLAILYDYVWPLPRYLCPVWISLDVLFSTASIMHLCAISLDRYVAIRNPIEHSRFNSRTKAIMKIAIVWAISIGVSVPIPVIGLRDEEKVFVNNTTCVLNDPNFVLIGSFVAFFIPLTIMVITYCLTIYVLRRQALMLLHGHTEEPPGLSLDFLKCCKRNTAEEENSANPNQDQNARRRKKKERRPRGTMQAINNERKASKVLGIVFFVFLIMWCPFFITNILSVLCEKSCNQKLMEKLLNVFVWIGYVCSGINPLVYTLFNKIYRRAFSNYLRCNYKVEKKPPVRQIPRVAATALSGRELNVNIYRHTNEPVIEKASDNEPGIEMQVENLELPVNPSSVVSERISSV

[8] = biological target: T4, Equilibrative nucleoside transporter 1 (Homo sapiens, UniProt Q99808)
T4 sequence (Q99808 whole entry): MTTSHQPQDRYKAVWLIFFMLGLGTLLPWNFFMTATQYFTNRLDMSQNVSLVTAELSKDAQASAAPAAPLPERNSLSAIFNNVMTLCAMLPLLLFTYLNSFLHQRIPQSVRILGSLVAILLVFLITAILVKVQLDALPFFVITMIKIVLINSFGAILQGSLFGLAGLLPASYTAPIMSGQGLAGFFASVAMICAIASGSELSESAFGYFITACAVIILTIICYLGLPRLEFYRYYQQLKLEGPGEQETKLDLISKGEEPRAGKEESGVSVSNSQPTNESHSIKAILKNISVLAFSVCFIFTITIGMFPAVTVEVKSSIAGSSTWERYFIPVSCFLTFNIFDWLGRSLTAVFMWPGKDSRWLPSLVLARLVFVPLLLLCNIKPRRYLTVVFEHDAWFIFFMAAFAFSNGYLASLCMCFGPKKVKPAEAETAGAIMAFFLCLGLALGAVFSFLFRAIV

[9] = biological target: D(1A) dopamine receptor (Homo sapiens, UniProt P21728); assay type: functional, cell-based
D(1A) dopamine receptor, sequence (P21728 whole entry): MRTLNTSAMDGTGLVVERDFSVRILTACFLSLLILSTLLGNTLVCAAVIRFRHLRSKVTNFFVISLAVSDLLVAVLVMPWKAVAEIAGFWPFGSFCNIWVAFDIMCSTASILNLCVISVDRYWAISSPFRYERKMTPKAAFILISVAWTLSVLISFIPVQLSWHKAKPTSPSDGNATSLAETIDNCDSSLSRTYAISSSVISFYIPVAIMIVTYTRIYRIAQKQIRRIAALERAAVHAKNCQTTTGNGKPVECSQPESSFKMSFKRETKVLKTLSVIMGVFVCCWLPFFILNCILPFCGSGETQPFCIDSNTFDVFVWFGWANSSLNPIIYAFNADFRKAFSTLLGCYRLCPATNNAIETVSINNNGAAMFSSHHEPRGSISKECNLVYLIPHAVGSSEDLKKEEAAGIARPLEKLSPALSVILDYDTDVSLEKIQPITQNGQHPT

[10] = biological target: Voltage-gated inwardly rectifying potassium channel KCNH2 (Homo sapiens, UniProt Q12809); assay type: functional; conditions: read-out: AC50
[11] = biological target: Sodium-dependent dopamine transporter (Homo sapiens, UniProt Q01959)
Sodium-dependent dopamine transporter, sequence (Q01959 whole entry): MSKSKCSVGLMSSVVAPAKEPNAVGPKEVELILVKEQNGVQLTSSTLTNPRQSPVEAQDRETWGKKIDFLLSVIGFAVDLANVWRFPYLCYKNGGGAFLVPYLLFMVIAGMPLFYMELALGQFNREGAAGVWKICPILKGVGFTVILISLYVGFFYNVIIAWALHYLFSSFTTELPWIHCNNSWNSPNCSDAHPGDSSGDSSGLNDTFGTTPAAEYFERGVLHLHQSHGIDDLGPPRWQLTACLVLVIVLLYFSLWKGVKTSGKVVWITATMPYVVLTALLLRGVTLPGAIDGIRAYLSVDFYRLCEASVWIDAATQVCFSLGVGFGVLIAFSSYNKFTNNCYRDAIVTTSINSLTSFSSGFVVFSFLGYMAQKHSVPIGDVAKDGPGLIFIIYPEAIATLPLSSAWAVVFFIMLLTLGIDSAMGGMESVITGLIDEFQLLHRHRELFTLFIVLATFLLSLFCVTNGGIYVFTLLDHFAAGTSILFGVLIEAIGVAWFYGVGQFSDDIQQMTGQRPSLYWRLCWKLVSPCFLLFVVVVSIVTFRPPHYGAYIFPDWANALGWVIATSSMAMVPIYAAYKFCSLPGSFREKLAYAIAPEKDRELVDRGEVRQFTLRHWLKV

[12] = biological target: Cannabinoid receptor 1 (Homo sapiens, UniProt P21554); assay type: functional, cell-based
Cannabinoid receptor 1, sequence (P21554 whole entry): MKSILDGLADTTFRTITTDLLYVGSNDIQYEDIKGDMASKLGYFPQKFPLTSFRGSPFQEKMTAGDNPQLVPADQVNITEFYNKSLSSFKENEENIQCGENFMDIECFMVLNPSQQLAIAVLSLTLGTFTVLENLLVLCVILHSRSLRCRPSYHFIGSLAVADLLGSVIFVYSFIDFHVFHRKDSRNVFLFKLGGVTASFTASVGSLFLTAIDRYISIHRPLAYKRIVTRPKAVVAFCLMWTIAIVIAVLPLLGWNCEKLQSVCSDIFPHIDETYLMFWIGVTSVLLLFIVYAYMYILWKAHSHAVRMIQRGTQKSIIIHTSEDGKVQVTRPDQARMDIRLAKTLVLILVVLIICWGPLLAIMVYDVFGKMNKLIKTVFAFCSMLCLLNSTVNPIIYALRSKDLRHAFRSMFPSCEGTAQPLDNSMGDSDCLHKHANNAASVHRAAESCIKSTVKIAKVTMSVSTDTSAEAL

[13] = biological target: T5, Alpha-1A adrenergic receptor (Homo sapiens, UniProt P35348); assay type: functional, cell-based
T5 sequence (P35348 whole entry): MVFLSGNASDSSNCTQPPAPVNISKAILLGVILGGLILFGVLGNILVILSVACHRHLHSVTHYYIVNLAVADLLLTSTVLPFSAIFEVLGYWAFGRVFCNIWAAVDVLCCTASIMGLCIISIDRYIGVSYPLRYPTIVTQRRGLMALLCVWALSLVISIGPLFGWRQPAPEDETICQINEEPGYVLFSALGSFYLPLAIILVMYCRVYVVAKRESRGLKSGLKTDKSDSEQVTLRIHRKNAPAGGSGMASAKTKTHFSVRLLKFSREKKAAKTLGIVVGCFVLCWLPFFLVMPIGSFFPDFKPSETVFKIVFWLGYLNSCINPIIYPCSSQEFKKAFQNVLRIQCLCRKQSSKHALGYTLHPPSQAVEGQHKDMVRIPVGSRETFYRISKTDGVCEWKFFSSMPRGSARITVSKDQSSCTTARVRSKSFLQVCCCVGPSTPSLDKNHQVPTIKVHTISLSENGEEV
Further: assay procedure not described here.

Structure (SMILES): NCCCC(O)(P(=O)(O)O)P(=O)(O)O [ALENDRONIC ACID]
- AC50 [1]: > 10 µM
- AC50 [2]: > 30 µM
- AC50 [3]: > 10 µM
- AC50 [4]: > 30 µM
- AC50 [5]: > 10 µM
- AC50 [6]: > 10 µM
- AC50 [7]: > 30 µM
- AC50 [8]: > 30 µM

Structure (SMILES): NS(=O)(=O)c1cc2c(cc1C(F)(F)F)NC(Cc1ccccc1)NS2(=O)=O (configuration not stated) [BENDROFLUMETHIAZIDE]
- AC50 [1]: > 10 µM
- AC50 [2]: > 10 µM
- AC50 [3]: > 10 µM
- AC50 [9]: > 10 µM
- AC50 [5]: > 10 µM
- AC50 [6]: > 10 µM
- AC50 [7]: > 30 µM
- AC50 [10]: > 30 µM
- AC50 [8]: > 30 µM
- AC50 [11]: 3.2 µM

Structure (SMILES): CS(=O)(=O)OCCCCOS(C)(=O)=O [BUSULFAN]
- AC50 [1]: > 30 µM
- AC50 [2]: > 30 µM
- AC50 [4]: > 30 µM
- AC50 [12]: > 30 µM
- AC50 [9]: > 30 µM
- AC50 [5]: > 30 µM
- AC50 [6]: > 30 µM
- AC50 [7]: > 30 µM
- AC50 [10]: > 30 µM
- AC50 [8]: > 30 µM
- AC50 [11]: > 30 µM
- AC50 [13]: > 30 µM

Structure (SMILES): CCCCC1(CC)C(=O)NC(=O)NC1=O [BUTETHAL]
- AC50 [1]: > 30 µM
- AC50 [2]: > 30 µM
- AC50 [4]: > 30 µM
- AC50 [12]: > 30 µM
- AC50 [9]: > 30 µM
- AC50 [5]: > 30 µM
- AC50 [6]: > 30 µM
- AC50 [7]: > 30 µM
- AC50 [10]: > 30 µM
- AC50 [8]: > 30 µM
- AC50 [11]: > 30 µM
- AC50 [13]: > 30 µM

Structure (SMILES): CCN(CC)CCOC(=O)c1ccc(N)cc1Cl [CHLOROPROCAINE]
- AC50 [1]: > 30 µM
- AC50 [2]: > 30 µM
- AC50 [4]: > 30 µM
- AC50 [12]: > 30 µM
- AC50 [9]: > 30 µM
- AC50 [5]: > 30 µM
- AC50 [6]: > 30 µM
- AC50 [7]: 17 µM
- AC50 [10]: 11 µM
- AC50 [8]: > 30 µM
- AC50 [11]: > 30 µM
- AC50 [13]: > 30 µM

Structure (SMILES): O=C(O)c1ccccc1OP(=O)(O)O [FOSFOSAL]
- AC50 [1]: > 30 µM
- AC50 [2]: > 30 µM
- AC50 [4]: > 30 µM
- AC50 [12]: > 30 µM
- AC50 [9]: > 30 µM
- AC50 [5]: > 30 µM
- AC50 [6]: > 30 µM
- AC50 [7]: > 30 µM
- AC50 [10]: > 30 µM
- AC50 [8]: > 30 µM
- AC50 [11]: > 30 µM
- AC50 [13]: > 30 µM

Structure (SMILES): Cc1ccc(NC(=O)C2(c3ccc4c(c3)OC(F)(F)O4)CC2)nc1-c1cccc(C(=O)O)c1 [LUMACAFTOR]
- AC50 [1]: > 30 µM
- AC50 [2]: > 30 µM
- AC50 [4]: > 10 µM
- AC50 [12]: > 30 µM
- AC50 [9]: > 30 µM
- AC50 [5]: > 30 µM
- AC50 [6]: > 30 µM
- AC50 [7]: > 30 µM
- AC50 [10]: > 30 µM
- AC50 [8]: > 30 µM
- AC50 [11]: > 30 µM
- AC50 [13]: 25 µM

Structure (SMILES): CC(=O)O[C@H]1C[C@@H]2CC[C@@H]3[C@H](CC[C@@]4(C)[C@H]3C[C@H]([N+]3(C)CCCCC3)[C@@H]4OC(C)=O)[C@@]2(C)C[C@@H]1[N+]1(C)CCCCC1 [PANCURONIUM]
- AC50 [1]: > 10 µM
- AC50 [2]: > 10 µM
- AC50 [3]: > 10 µM
- AC50 [9]: > 10 µM
- AC50 [5]: > 10 µM
- AC50 [6]: > 10 µM
- AC50 [7]: > 30 µM
- AC50 [10]: 1.26 µM
- AC50 [8]: > 10 µM
- AC50 [11]: > 10 µM

Structure (SMILES): CC1(C)C(C=C(Cl)Cl)C1C(=O)OCc1cccc(Oc2ccccc2)c1 (configuration not stated) [PERMETHRIN]
- AC50 [1]: > 10 µM
- AC50 [2]: > 10 µM
- AC50 [3]: > 10 µM
- AC50 [9]: > 10 µM
- AC50 [5]: > 10 µM
- AC50 [6]: > 10 µM
- AC50 [7]: > 30 µM
- AC50 [10]: > 30 µM
- AC50 [8]: > 10 µM
- AC50 [11]: > 10 µM

Structure (SMILES): Cc1ccc(=O)n(-c2ccccc2)c1 [PIRFENIDONE]
- AC50 [1]: > 30 µM
- AC50 [2]: > 30 µM
- AC50 [4]: > 30 µM
- AC50 [12]: > 30 µM
- AC50 [9]: > 30 µM
- AC50 [5]: > 30 µM
- AC50 [6]: > 30 µM
- AC50 [7]: > 30 µM
- AC50 [10]: > 30 µM
- AC50 [8]: > 30 µM
- AC50 [11]: > 30 µM
- AC50 [13]: > 30 µM

Structure (SMILES): CCCNC(C)C(=O)Nc1ccccc1C (configuration not stated) [PRILOCAINE]
- AC50 [1]: > 30 µM
- AC50 [2]: > 30 µM
- AC50 [4]: > 30 µM
- AC50 [12]: > 30 µM
- AC50 [9]: > 30 µM
- AC50 [5]: > 30 µM
- AC50 [6]: > 30 µM
- AC50 [7]: > 30 µM
- AC50 [10]: > 30 µM
- AC50 [8]: > 30 µM
- AC50 [11]: > 30 µM
- AC50 [13]: > 30 µM
